In patent US10111874B2, “Combination therapies for treatment of cancer” (Araxes Pharma LLC, priority 2014, dated 2018) one finds Binding % data, which are given here for 30 compounds.

The target in this test is T1, KRAS G12C 1-169, his-tagged protein, GDP-loaded (Homo sapiens, UniProt P01116, G12C).
T1 construct: KRAS G12C 1-169, his-tagged protein, GDP-loaded
As to the kind of experiment: Biochemical assay: covalent binding to KRAS G12C analyzed by mass spectrometry. Also: test concentration or dose not given here.

The mark [1] stands for this setting: compounds 247-342, measured at 30 min.
The mark [2] stands for this setting: compounds 48-246, measured at 2 h.
The mark [3] stands for this setting: compounds 1-47, measured at 24 h.

T1 sequence (P01116 1-169 isoform P01116-2 G12C): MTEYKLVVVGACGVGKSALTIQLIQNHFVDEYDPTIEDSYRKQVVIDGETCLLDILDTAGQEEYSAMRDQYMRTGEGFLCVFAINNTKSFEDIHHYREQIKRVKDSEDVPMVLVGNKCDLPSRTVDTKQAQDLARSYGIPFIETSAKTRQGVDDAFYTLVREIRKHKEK

With `C=CC(=O)N1CCN(c2c(C#N)cnc3c(F)c(-c4c(C)ccc5cn[nH]c45)c(Cl)cc23)CC1` [Compound 308, 4-(4-acryloylpiperazin-1-yl)-6-chloro-8-fluoro-7-(6-methyl-1H-indazol-7-yl)quinoline-3-carbonitrile], the Binding % entry under setting [1] was “+++ (+++indicates binding activity greater than 50% and up to 75%)”.

Turning to `C=CC(=O)N1CCN(c2ncnc3cc(-c4cccc(Cl)c4)c(Cl)cc23)CC1` [Compound I-73, 1-(4-(6-chloro-7-(3-chlorophenyl)quinazolin-4-yl)piperazin-1-yl)prop-2-en-1-one], the Binding % entry under setting [2] is “++ (++indicates binding activity greater than 25% and up to 50%)”. Regarding `C=CC(=O)N1CCN(c2ncnc3cc(-c4ccc(Cl)cc4F)c(Cl)cc23)CC1` [Compound I-114, 1-(4-(6-chloro-7-(4-chloro-2-fluorophenyl)quinazolin-4-yl)piperazin-1-yl)prop-2-en-1-one], the Binding % result under setting [2] is “+++ (+++indicates binding activity greater than 50% and up to 75%)”. `C=CC(=O)N1CC(N2CCC(C(=O)NCc3cc(Cl)c(Cl)cc3O)CC2)C1` [II-17, 1-(1-acryloylazetidin-3-yl)-N-(4,5-dichloro-2-hydroxybenzyl)piperidine-4-carboxamide]: where the note is “determined at 24 hrs”, the Binding % entry is “++ (++indicates binding activity greater than 15% and up to 25%)”. Take `C=CC(=O)N1CCN(c2ncnc3cc(-c4ccccc4C(F)(F)F)c(Cl)cc23)CC1` [Compound I-100, 1-(4-(6-chloro-7-(2-(trifluoromethyl)phenyl)quinazolin-4-yl)piperazin-1-yl)prop-2-en-1-one]: the Binding % result under setting [2] was “+++ (+++indicates binding activity greater than 50% and up to 75%)”. Turning to `C=CC(=O)N1CCN(C(=O)c2cc(-c3cc(Cl)ccc3Cl)c(Cl)cc2OC)C(CO)C1` (stereo not drawn) [III-7, 1-(3-(Hydroxymethyl)-4-(2′,5′,6-trichloro-4-methoxy-[1,1′-biphenyl]-3-carbonyl)piperazin-1-yl)prop-2-en-1-one], the Binding % result (determined at 24 hrs) is “+++ (+++indicates binding activity greater than 20% and up to 30%)”. Regarding `C=CC(=O)N1CCN(c2ncnc3c(F)c(-c4c(C)ccc5[nH]ncc45)c(Cl)cc23)CC1` [Compound 334, 1-(4-(6-chloro-8-fluoro-7-(5-methyl-1H-indazol-4-yl)quinazolin-4-yl)piperazin-1-yl)prop-2-en-1-one], the Binding % result under setting [1] is “++++ (++++indicates binding activity greater than 75%)”. Consider `C=CC(=O)N1CCN(c2ncnc3c(F)c(-c4c(C)ccc5[nH]ncc45)c(Cl)cc23)CC1C` (stereo not drawn) [Compound 327, 1-(4-(6-chloro-8-fluoro-7-(5-methyl-1H-indazol-4-yl)quinazolin-4-yl)-2-methylpiperazin-1-yl)prop-2-en-1-one], for which, under setting [1], the Binding % result is “++ (++indicates binding activity greater than 25% and up to 50%)”. With `C=CC(=O)N1CCN(c2ncnc3cc(-c4cc(NC(C)=O)ccc4F)c(Cl)cc23)CC1` [Compound I-174, N-(3-(4-(4-acryloylpiperazin-1-yl)-6-chloroquinazolin-7-yl)-4-fluorophenyl)acetamide], under setting [2], the Binding % result was “++ (++indicates binding activity greater than 25% and up to 50%)”. Same read-out and setting: to `C=CC(=O)N1CCN(c2ncnc3cc(-c4cccc5c4OC(F)(F)O5)c(Cl)cc23)CC1` [Compound I-200, 1-(4-(6-chloro-7-(2,2-difluorobenzo[d][1,3]dioxol-4-yl)quinazolin-4-yl)piperazin-1-yl)prop-2-en-1-one] belongs “++ (++indicates binding activity greater than 25% and up to 50%)”. With `CN(C)C/C=C/C(=O)N1CCN(c2c(C#N)cnc3c(F)c(-c4cc(O)cc5ccccc45)c(Cl)cc23)CC1` [Compound 310, (E)-6-chloro-4-(4-(4-(dimethylamino)but-2-enoyl)piperazin-1-yl)-8-fluoro-7-(3-hydroxynaphthalen-1-yl)quinoline-3-carbonitrile], under setting [1], the Binding % result is on record as “++++ (++++indicates binding activity greater than 75%)”. As to `CCOC(=O)/C=C/C(=O)N1CCN(c2ncnc3cc(-c4ccc(F)cc4F)c(Cl)cc23)CC1` [Compound I-239, (E)-ethyl 4-(4-(6-chloro-7-(2,4-difluorophenyl)quinazolin-4-yl)piperazin-1-yl)-4-oxobut-2-enoate], the Binding % result under setting [2] is “+++ (+++indicates binding activity greater than 50% and up to 75%)”.

Consider `C=CC(=O)N1CCN(c2ncnc3cc(Cl)c(-c4cccnc4)cc23)CC1` [Compound I-20, 1-(4-(7-chloro-6-(pyridin-3-yl)quinazolin-4-yl)piperazin-1-yl)prop-2-en-1-one], for which the Binding % result under setting [3] is reported as “+ (+indicates binding activity from 5% to 25%)”. Take `C#CC1CN(c2ncnc3cc(-c4ccc(F)cc4F)c(Cl)cc23)CCN1C(=O)C=C` (stereo not drawn) [Compound I-195, 1-(4-(6-chloro-7-(2,4-difluorophenyl)quinazolin-4-yl)-2-ethynylpiperazin-1-yl)prop-2-en-1-one]: the Binding % result under setting [2] is listed as “++++ (++++indicates binding activity greater than 75%)”.

On to `C=CC(=O)N1CCN(c2ncnc3cc(-c4ccccc4C4(C(N)=O)CC4)c(Cl)cc23)CC1` [Compound I-176, 1-(2-(4-(4-acryloylpiperazin-1-yl)-6-chloroquinazolin-7-yl)phenyl)cyclopropanecarboxamide], for which, under setting [2], the Binding % entry is “+++ (+++indicates binding activity greater than 50% and up to 75%)”. With `C=CC(=O)N1CCN(c2ncnc3cc(-c4ccccc4)c(Cl)cc23)CC1CO` (stereo not drawn) [Compound I-116, 1-(4-(6-chloro-7-phenylquinazolin-4-yl)-2-(hydroxymethyl)piperazin-1-yl)prop-2-en-1-one], under setting [2], the Binding % result was “++ (++indicates binding activity greater than 25% and up to 50%)”. With `N#C/C(=C\c1cncs1)C(=O)N1CCN(c2ncnc3cc(-c4ccccc4F)c(Cl)cc23)CC1` [Compound I-245, (E)-2-(4-(6-chloro-7-(2-fluorophenyl)quinazolin-4-yl)piperazine-1-carbonyl)-3-(thiazol-5-yl)acrylonitrile], the Binding % result under setting [2] is “+ (+indicates binding activity from 5% to 25%)”. With `C=CC(=O)N1CCN(c2ncnc3cc(-c4ccccc4COC)c(Cl)cc23)CC1` [Compound I-103, 1-(4-(6-chloro-7-(2-(methoxymethyl)phenyl)quinazolin-4-yl)piperazin-1-yl)prop-2-en-1-one], the Binding % entry under setting [2] was “++ (++indicates binding activity greater than 25% and up to 50%)”. As for `C=CC(=O)N1CCN(c2ncnc3cc(-c4cccc5ccccc45)c(Cl)cc23)CC1` [Compound I-123, 1-(4-(6-chloro-7-(naphthalen-1-yl)quinazolin-4-yl)piperazin-1-yl)prop-2-en-1-one], under setting [2], the Binding % result is listed as “++++ (++++indicates binding activity greater than 75%)”.

Consider `C=CC(=O)N1CCN(c2ncnc3cc(-c4c(O)ccc5ccccc45)c(C(F)(F)F)cc23)CC1` [Compound I-218, 1-(4-(7-(2-hydroxynaphthalen-1-yl)-6-(trifluoromethyl)quinazolin-4-yl)piperazin-1-yl)prop-2-en-1-one], for which the Binding % result under setting [2] was “+++ (+++indicates binding activity greater than 50% and up to 75%)”. On to `C=CC(=O)N1CCN(c2ncnc3cc(-c4ccc(F)cc4O)c(Cl)cc23)CC1` [Compound I-133, 1-0(4-(6-chloro-7-(4-fluoro-2-hydroxyphenyl)quinazolin-4-yl)piperazin-1-yl)prop-2-en-1-one], for which the Binding % entry under setting [2] is “++ (++indicates binding activity greater than 25% and up to 50%)”.

Take `C=CC(=O)N1CCN(c2ncnc3cc(-c4cc(F)ccc4O)c(Cl)cc23)CC1` [Compound I-122, 1-(4-(6-chloro-7-(5-fluoro-2-hydroxyphenyl)quinazolin-4-yl)piperazin-1-yl)prop-2-en-1-one]: the Binding % result under setting [2] is “++ (++indicates binding activity greater than 25% and up to 50%)”.

Consider `C=CC(=O)N1CC(N2CCN(C(=O)CNc3cc(Cl)c(CC)cc3O)CC2)C1` [II-52, 1-(3-(4-(2-(5-chloro-4-ethyl-2-hydroxyphenylamino)acetyl)piperazin-1-yl)azetidin-1-yl)prop-2-en-1-one], for which the Binding % entry (determined at 2 hrs) is reported as “+ (+indicates binding activity from 5% to 20%)”. In the case of `C=CC(=O)N1CC(N2CCN(C(=O)CNc3cc(C#N)c(Cl)cc3Cl)CC2)C1` [II-9, 5-(2-(4-(1-acryloylazetidin-3-yl)piperazin-1-yl)-2-oxoethylamino)-2,4-dichlorobenzonitrile], the Binding % entry (determined at 24 hrs) is given as “+ (+indicates binding activity from 5% to 15%)”. In the case of `C=CC(=O)NC1CN(C2CN(C(=O)CNc3cc(Cl)c(Cl)cc3O)C2)C1` [Example 39, N-(1′-(2-(4,5-dichloro-2-hydroxyphenylamino)acetyl)-1,3′-biazetidin-3-yl)acrylamide], under setting [3], the Binding % result was “+ (+indicates binding activity from 5% to 25%)”. Consider `C=CC(=O)N1CCN(c2nc(OCCN(C)C)nc3c(F)c(-c4c(O)cccc4F)c(Cl)cc23)CC1` [Compound 341, 1-(4-(6-chloro-2-(2-(dimethylamino)ethoxy)-8-fluoro-7-(2-fluoro-6-hydroxyphenyl)quinazolin-4-yl)piperazin-1-yl)prop-2-en-1-one], for which, under setting [1], the Binding % result was “++++ (++++indicates binding activity greater than 75%)”. For the compound `C=CC(=O)N1CCN(c2ccnc3cc(-c4ccccc4)c(Cl)cc23)CC1` [Compound I-91, 1-(4-(6-chloro-7-phenylquinolin-4-yl)piperazin-1-yl)prop-2-en-1-one], the Binding % result under setting [2] is “++ (++indicates binding activity greater than 25% and up to 50%)”. Take `C=CC(=O)N1CC(N2CCN(C(=O)Cc3cccc4ccccc34)CC2)C1` [II-24, 1-(3-(4-(2-(naphthalen-1-yl)acetyl)piperazin-1-yl)azetidin-1-yl)prop-2-en-1-one]: the Binding % entry (determined at 24 hrs) was “+ (+indicates binding activity from 5% to 15%)”. For the compound `C=CC(=O)N1CCN(c2ncnc3cc(Cl)c(-c4ccc(O)cc4)cc23)CC1` [Compound I-12, 1-(4-(7-chloro-6-(4-hydroxyphenyl)quinazolin-4-yl)piperazin-1-yl)prop-2-en-1-one], the Binding % result under setting [3] is “+ (+indicates binding activity from 5% to 25%)”. As for `C=CC(=O)N1CC(N2CCN(C(=O)CNc3cc(CC(F)(F)F)c(Cl)cc3O)CC2)C1` [II-57, 1-(3-(4-(2-((4-Chloro-2-hydroxy-5-(2,2,2-trifluoroethyl)phenyl)amino)acetyl)piperazin-1-yl)azetidin-1-yl)prop-2-en-1-one], for the setting “determined at 2 hrs”, the Binding % result is listed as “++ (++indicates binding activity greater than 20%)”.
